In US20230104477A1, “USE OF DEHYDROASCORBIC ACID AGAINST NEMATODE INFECTION IN PLANTS” (Universiteit Gent, priority 2019, published 2023):

Assays:
[1] = test system: root-knot nematode Meloidogyne graminicola; experiment: Root growth in rice after foliar spray, nematode-infected conditions (tolerance); format: in vivo; conditions: 14-days old rice, foliar spray 20 mM, 250 nematodes per plant
Description: Rice—Seeds of wild-type rice Oryza sativa cv. Nipponbare were obtained from USDA (GSOR-100). Seeds were germinated on wet filter paper for 4-5 days at 30° C. and seedlings were then transferred to SAP-substrate (Sand mixed with Absorbent Polymer AquaPerla®, DCM, Belgium) and further grown at 28° C., under a light regime of (day/night) 12/12. Hoagland solution was given as a source of nutrients 3 times a week.
(§1) M. graminicola originally isolated in the Philippines (Batangas) was cultured on susceptible rice plants. Second stage juveniles (J2s) were extracted using a sieve/tray extraction method and inoculation was done as described in Nahar et al., (2011). For susceptibility assays, at least two independent experiments were carried out, each time including eight plants per treatment. Twelve days after inoculation (dai), roots were stained using acid fuchsine (Nahar et al., 2011) to count galls and number of nematodes in the roots.
(§2) Reduced Ascorbic acid (AA, 20 mM), dehydroascorbic acid (DHA, 20 mM), ascorbate oxidase (AO, 20 U/ml), methyl jasmonate (MeJA, 100 μM), aminooxyacetic acid (AoA, 12.5 mM), diethyldithiocarbamic acid (DIECA, 100 μM) and ethephon (100 μM) were purchased from Sigma and dissolved in water (except MeJA that was first dissolved in a drop of ETOH) to attain the indicated concentration.
(§3) For foliar application, all chemicals were dissolved in water and 0.02% (v/v) of Tween20 as a surfactant was added prior to spraying on aerial portions of the rice plants. Control plants were sprayed with distilled water containing 0.02% Tween20. Eight plants per treatment were sprayed until run-off with 6.5 mL of solution (at 24 h prior to nematode inoculation, in cases where infected plants were used). The substrate was covered to avoid direct contact with the roots and/or nematodes.

[2] = test system: root-knot nematode M. graminicola; experiment: Susceptibility assay on rice plants, foliar spray; format: in vivo, Meloidogyne graminicola; conditions: foliar spray 24 h prior to inoculation (AA 20 mM, DHA 20 mM, AO 20 U/ml); 12 dai; vs control
Description: as §1, §2, §3

[3] = test system: Phenylalanine ammonia lyase (PAL); experiment: PAL activity measurements in treated rice plants; format: in vivo; conditions: 20 mM DHA foliar spray; for PAL-activity in galls in comparison with uninfected root tips: M. graminicola infected
Description: PAL activity measurements—14 days old rice plants were foliar sprayed with 20 mM DHA and 1 day later, plants were inoculated with Meloidogyne graminicola nematodes (Mg+) or mock inoculated (Mg−). Three or seven days after inoculation, samples were collected. Both galls and systemic tissue (shoots) were collected. Samples were flash-frozen and ground under liquid nitrogen. Per sample, 100 mg of material was used to execute PAL-activity measurement according to Camacho-Cristobal et al. (2002). PAL was assayed by measuring the formation of trans-cinnamic acid at 290 nm. Samples were dissolved in 800 μl of 50 mM sodium phosphate as assay buffer containing 2% (w/v) poly-vinylpolypyrrolidone (PVPP), 2 mM EDTA, 18 mM-mercaptoetanol and 0.1% (v/v) Triton X-100. The homogenate was centrifuged at 8000 rpm, 4° C. for 10 min. In different 2 ml tubes, 135 μl of reaction buffer, 50 μl of 5 mM of L-phenlyalanine, and 20 μl of supernatant were mixed and absorbance at 290 nm was measured before incubation at 40° C. for 30 minutes. Then, 10 μl of hydrochloric acid was added and measurement was again done at the same wavelength. The assay was done with 4 biological replicates, which each consisted of pooled material of 4 plants.

`O=C1O[C@H]([C@@H](O)CO)C(=O)C1=O` [DHA, (5R)-5-[(1S)-1,2-dihydroxyethyl]furan-2,3,4(5H)-trione] was tested, and the root length ([1]; 8 DAS (7 days after inoculation)) was “most significant improved root length”, the root length ([1]; 12 DAS (11 days after inoculation)) was “most significant improved root length” and the number of galls [2] was “significantly lower number of galls”. For the same compound, the number of nematodes [2] was “lower number of nematodes”, the “PAL-activity in systemic shoot tissues of infected versus uninfected plants” value ([3]; 3 dpi) was “strongly enhanced” and the “PAL-activity in systemic shoot tissues of infected versus uninfected plants” value ([3]; 7 dpi) was “strongly enhanced”. The “PAL-activity in galls in comparison with uninfected root tips” value ([3]; 3 dpi) was “strongly enhanced” and the “PAL-activity in galls in comparison with uninfected root tips” value ([3]; 7 dpi) was “strongly enhanced”.
